What was measured:
[1] = system: breast cancer MDA-MB-231 cells; test: MTT antiproliferation assay, MDA-MB-231; assay type: cell-based, human; settings: 48 h, means ± SD, n = 3
Source text: (§1) The target hybrids A1–A15 were screened for their antiproliferation activities against five human cancer cell lines (lung cancer A549 cells, breast cancer MCF-7 and MDA-MB-231 cells, colon cancer HCT116 cells and ovarian cancer SK-OV-3 cells) in vitro by the standard MTT method, and 5-fluorouracil (5-FU) and ART were coassayed as controls. […] Therefore, the most promising hybrid, A8, was chosen for further exploration of the preliminary mechanism of MCF-7 cell antiproliferation.
(§2) Cytotoxicity of test compounds against five different tumor cell lines were evaluated using an MTT assay in vitro. Cells were seeded into 96-well plates at a density of 5 × 10^4 cells per well and stabilized at 37 °C with 5% CO2 for 24 h. Compounds A1–A15, ART and 5-FU were added to each well at various concentrations and then the cells were incubated for 48 h. The MTT solution (100 μL 0.5 mg/mL^−1) was added to each well, and the cells were incubated for another 4 h. Then, 150 μL DMSO was added to each well and the absorbance of samples was measured at 492 nm. The IC50 values were calculated according to Logit method after getting the inhibitory rate.

Bcl-2 = test: Western blotting, Bcl-2 expression; assay type: cell-based, human; settings: MCF-7, 0, 2.5, 5 and 10 μM, 48 h, GAPDH internal control
Description: (§3) Based on the JC-1 staining results, we further analyzed the expression of proteins related to apoptosis using a Western blotting assay with GAPDH as an internal control. […] Then, an excess of cytochrome C can enhance caspase-3 activation to stimulate apoptosis.
(§4) MCF-7 cells were seeded at a density of 4 × 10^5 cells per well and treated with various concentrations of compound A8 (0, 2.5, 5 and 10 μM) for 48 h. After this, cells were collected and washed twice with ice-cold DPBS. The pellets were resuspended in a total protein extraction buffer (20 mM HEPES, 350 mM NaCl, 20% glycerol, 1% NP-40, 1 mM MgCl2, 0.5 mM EDTA, 0.1 mM EGTA, 0.1 mM DTT, 0.1 mM PMSF) containing a protease inhibitor cocktail and incubated on ice for 30 min with intermittent mixing. The protein concentration was measured using the Bradford reagent (Bio-Rad Laboratories Inc., Hercules, CA, USA). An equal amount (20 μg) of protein was loaded on 10% polyacrylamide gels and transferred to a nitrocellulose membrane. After blocking with 5% skimmed milk, the membrane was incubated at 4 °C overnight with specific primary antibodies. The membrane was washed and incubated at room temperature for 1 h with secondary antibodies conjugated with horseradish peroxidase (HRP). Finally, the immunoblot was developed for visualization using a chemiluminescence kit. […]

CYP3A4 = molecular target: T1, CYP3A4 (Homo sapiens, UniProt P08684); test: CYPs inhibition assay, CYP3A4; assay type: in vitro ADME
T1 construct: from tissue; host or cells: human liver microsomes
Description: (§5) Finally, we evaluated the interaction between the hybrid A8 and five major metabolic enzymes (CYP1A2, CYP2C9, CYP2C19, CYP2D6 and CYP3A4) in the human body. […] It is also one of the directions for our further transformation and optimization.
(§6) Cytochrome P450 inhibition was evaluated in human liver microsomes (0.253 mg/mL) using five […] (CYP1A2, α-Naphthoflavone; CYP2C9, Sulfaphenazole; CYP2C19, Benzylnirvanol; CYP2D6, Quinidine; and CYP3A4, Ketoconazole.) in the presence of compound A8 (10 μM). After preincubation for 10 min at 37 °C, an NADPH-regenerating system was added. After the mixed system was incubated for 15 min at 37 °C, the reaction was stopped by adding 400 μL of cold stop solution (200 ng/mL tolbutamide and 200 ng/mL labetalol in acetonitrile). Then, the mixture was centrifuged, and the supernatant was analyzed by LC-MS/MS.

[2] = system: colon cancer HCT116 cells; test: MTT antiproliferation assay, HCT116; assay type: cell-based, human; settings: 48 h, means ± SD, n = 3
Source text: as §1, §2

CYP2D6 = molecular target: T2, CYP2D6 (Homo sapiens, UniProt P10635); test: CYPs inhibition assay, CYP2D6; assay type: in vitro ADME; settings: human liver microsomes
T2 construct: from tissue; host or cells: human liver microsomes
Description: as §5, §6

lung cancer A549 cells = test: MTT antiproliferation assay, A549; assay type: cell-based, human; settings: 48 h, means ± SD, n = 3
Source text: as §1, §2

CYP2C9 = molecular target: T3, CYP2C9 (Homo sapiens, UniProt P11712); test: CYPs inhibition assay, CYP2C9; assay type: in vitro ADME; settings: human liver microsomes
T3 construct: from tissue; host or cells: human liver microsomes
Description: as §5, §6

MCF-7 cells [3] = test: JC-1 mitochondrial membrane potential assay; assay type: cell-based, human; settings: 48 h, control 7.85%
Description: JC-1 staining was also performed to explore the change in mitochondrial membrane potential (MMP), which could induce apoptosis.
MCF-7 cells were plated at 1 × 10^6 cells per well in 24-well plates and incubated with compound A8 at various concentrations (0, 2.5, 5 and 10 μM) for 48 h. Subsequently, the cells were incubated with JC-1 dye and finally analyzed by flow cytometry (Beckman Coulter cytoFLEX, USA).

MCF-7 cells [4] = test: Intracellular ROS generation (DCFH-DA, flow cytometry); assay type: cell-based, human; settings: MCF-7, 0, 2.5, 5 and 10 μM, 48 h
Description: First, we detected ROS levels using DFCH-DA.
ROS production was detected by using the peroxide-sensitive fluorescent probe DCFH-DA. After treatment with different concentrations of A8 for 48 h, the cells were incubated with 10 μg/mL DCFH-DA at 37 °C for 20 min. Then, cells were harvested. Samples were analyzed by flow cytometry (FACS Calibur, Becton-Dickinson, East Rutherford, NJ, USA).

Bax = test: Western blotting, Bax expression; assay type: cell-based, human; settings: MCF-7, 0, 2.5, 5 and 10 μM, 48 h, GAPDH internal control
Description: as §3, §4

T1 sequence (P08684 whole entry): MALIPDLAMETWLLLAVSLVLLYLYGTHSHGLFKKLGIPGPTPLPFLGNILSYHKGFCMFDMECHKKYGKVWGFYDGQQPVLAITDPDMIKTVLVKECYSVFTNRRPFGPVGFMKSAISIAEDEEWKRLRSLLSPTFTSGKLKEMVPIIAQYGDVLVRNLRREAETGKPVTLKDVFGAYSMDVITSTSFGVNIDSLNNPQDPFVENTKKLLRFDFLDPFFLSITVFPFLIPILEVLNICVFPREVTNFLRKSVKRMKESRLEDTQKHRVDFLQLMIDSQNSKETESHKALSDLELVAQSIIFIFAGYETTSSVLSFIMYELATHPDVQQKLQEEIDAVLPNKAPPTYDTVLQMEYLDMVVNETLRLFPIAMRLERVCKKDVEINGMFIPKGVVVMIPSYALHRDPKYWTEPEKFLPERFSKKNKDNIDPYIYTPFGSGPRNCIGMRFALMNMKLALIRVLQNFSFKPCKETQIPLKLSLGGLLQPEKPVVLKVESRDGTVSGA
T2 sequence (P10635 whole entry): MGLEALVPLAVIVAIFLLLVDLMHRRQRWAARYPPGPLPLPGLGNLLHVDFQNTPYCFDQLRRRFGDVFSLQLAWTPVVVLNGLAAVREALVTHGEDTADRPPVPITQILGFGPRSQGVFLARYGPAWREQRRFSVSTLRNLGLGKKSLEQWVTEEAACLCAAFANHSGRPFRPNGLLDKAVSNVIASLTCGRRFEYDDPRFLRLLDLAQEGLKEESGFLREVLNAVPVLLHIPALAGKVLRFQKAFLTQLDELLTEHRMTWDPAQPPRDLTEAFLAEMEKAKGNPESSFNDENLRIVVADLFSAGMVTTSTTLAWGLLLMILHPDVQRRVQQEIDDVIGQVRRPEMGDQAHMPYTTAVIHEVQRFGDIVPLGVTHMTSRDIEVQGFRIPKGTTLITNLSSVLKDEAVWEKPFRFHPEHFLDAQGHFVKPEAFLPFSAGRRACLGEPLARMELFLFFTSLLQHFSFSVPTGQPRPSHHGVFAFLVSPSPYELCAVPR
T3 sequence (P11712 whole entry): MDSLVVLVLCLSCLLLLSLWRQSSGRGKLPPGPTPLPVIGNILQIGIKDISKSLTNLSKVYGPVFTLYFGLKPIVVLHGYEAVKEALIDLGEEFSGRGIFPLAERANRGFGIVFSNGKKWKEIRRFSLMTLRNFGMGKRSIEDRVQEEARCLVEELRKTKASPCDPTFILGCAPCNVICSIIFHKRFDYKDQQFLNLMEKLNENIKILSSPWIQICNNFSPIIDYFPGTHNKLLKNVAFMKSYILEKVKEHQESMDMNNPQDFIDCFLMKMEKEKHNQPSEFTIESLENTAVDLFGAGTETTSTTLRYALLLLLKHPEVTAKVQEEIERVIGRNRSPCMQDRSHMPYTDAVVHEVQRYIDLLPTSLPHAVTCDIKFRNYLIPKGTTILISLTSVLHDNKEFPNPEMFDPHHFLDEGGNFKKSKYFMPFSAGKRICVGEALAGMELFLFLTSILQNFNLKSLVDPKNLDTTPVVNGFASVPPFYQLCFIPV

CC1CCC2C(C)C(OC(=O)CCC(=O)NCc3nnc(Nc4ccc(F)cc4F)o3)OC3OC4(C)CCC1C32OO4 (stereo not shown) [A8]
IC50 [1]: 5.27 ± 0.02 µM
expression of Bcl-2 (in words) (Bcl-2): significantly downregulated
inhibitory effect on CYP3A4 (in words) (CYP3A4; 10 μM): moderate inhibitory effect
Inhibition at 10 μM (%) CYP3A4 (CYP3A4; human liver microsomes): 55.8%
IC50 [2]: 9.71 ± 0.37 µM
Inhibition at 10 μM (%) CYP2D6 (CYP2D6): 0.1%
IC50 (lung cancer A549 cells): 7.7 ± 0.36 µM
Inhibition at 10 μM (%) CYP2C9 (CYP2C9): 6.4%
proportion of MCF-7 cells with depolarized mitochondria (Q1-LR) (MCF-7 cells [3]; 2.5 μM): 19.45%
proportion of MCF-7 cells with depolarized mitochondria (Q1-LR) (MCF-7 cells [3]; 5 μM): 36.90%
proportion of MCF-7 cells with depolarized mitochondria (Q1-LR) (MCF-7 cells [3]; 10 μM): 48.70%
ROS fluorescence intensity (in words) (MCF-7 cells [4]): increased significantly with increasing drug concentration
expression of Bax (in words) (Bax): upregulated

Source: PMC9779727, “Identification of Novel Artemisinin Hybrids Induce Apoptosis and Ferroptosis in MCF-7 Cells” (International Journal of Molecular Sciences, 2022)
